Measurements: the Kinase Knowledgebase extract (Sharma et al. 2016)

What was measured:
MAPK14 [1] = biological target: MAPK14 (UniProt Q16539); assay: MAPK14 Kinase Binding Inhibition
MAPK14 [2] = biological target: MAPK14 (UniProt Q16539); assay: TNF Inhibition (In Vivo)
MAPK14 [3] = biological target: MAPK14 (UniProt Q16539); assay: MAPK14 Kinase Inhibition

Sequence of MAPK14 (Q16539 whole entry, looked up): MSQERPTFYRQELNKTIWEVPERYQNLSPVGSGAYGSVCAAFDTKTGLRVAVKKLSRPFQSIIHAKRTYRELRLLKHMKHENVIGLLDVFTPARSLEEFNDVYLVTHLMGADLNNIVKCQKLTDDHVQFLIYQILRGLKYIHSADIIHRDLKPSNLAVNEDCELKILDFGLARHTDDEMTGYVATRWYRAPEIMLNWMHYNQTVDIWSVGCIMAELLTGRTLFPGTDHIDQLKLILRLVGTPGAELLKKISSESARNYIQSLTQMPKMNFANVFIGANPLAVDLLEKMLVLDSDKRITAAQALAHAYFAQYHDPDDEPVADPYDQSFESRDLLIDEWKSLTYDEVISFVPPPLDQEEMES

| SMILES | inhibition (MAPK14 [1]) | IC50 (MAPK14 [3]) | inhibition (MAPK14 [2]) |
| --- | --- | --- | --- |
| CN1CCC(n2cnc(-c3ccc(F)cc3)c2-c2ccnc(NCc3cccc4ccccc34)n2)CC1 | < 50 µM | – | < 50 µM |
| COc1ccc(Nc2nccc(-c3c(-c4ccc(F)cc4)ncn3C3CCNCC3)n2)cc1 | – | < 50 µM | – |
| CSc1ccc(-c2ncn(C3CCNCC3)c2-c2ccnc(Nc3ccccc3)n2)cc1 | – | < 50 µM | – |
| O=C1CCC(n2cnc(-c3ccc(F)cc3)c2-c2ccnc(Nc3ccccc3)n2)CC1 | < 50 µM | – | < 50 µM |
| CCOCCCNc1nccc(-c2c(-c3ccc(F)cc3)ncn2C2CCNCC2)n1 | < 50 µM | – | – |
| Fc1ccc(-c2ncn(C3CCNCC3)c2-c2ccnc(Nc3ccccc3)n2)cc1 | < 50 µM | – | < 50 µM |
| Fc1ccc(-c2ncn(C3CCNCC3)c2-c2ccnc(Nc3ccc(F)c(F)c3)n2)cc1 | – | < 50 µM | – |
| COc1cccc(Nc2nccc(-c3c(-c4ccc(F)cc4)ncn3C3CCNCC3)n2)c1 | – | < 50 µM | – |
| Fc1ccc(Nc2nccc(-c3c(-c4ccc(F)cc4)ncn3C3CCNCC3)n2)cc1 | – | < 50 µM | < 50 µM |
| CN1CCC(n2cnc(-c3ccc(F)cc3)c2-c2ccnc(Nc3cccc(Br)c3)n2)CC1 | < 50 µM | – | – |
| CCOC(=O)N1CCC(Nc2nccc(-c3c(-c4ccc(F)cc4)ncn3C3CCN(C)CC3)n2)CC1 | < 50 µM | – | – |
| CN1CCC(n2cnc(-c3ccc(F)cc3)c2-c2ccnc(NC3CCN(Cc4ccccc4)CC3)n2)CC1 | < 50 µM | – | – |
| CN1CCC(n2cnc(-c3ccc(F)cc3)c2-c2ccnc(NCCCN3CCOCC3)n2)CC1 | < 50 µM | – | – |
| NCCNc1nccc(-c2c(-c3ccc(F)cc3)ncn2C2CCNCC2)n1 | 50 µM | – | – |
| Oc1ccc(Nc2nccc(-c3c(-c4ccc(F)cc4)ncn3C3CCNCC3)n2)cc1 | – | < 50 µM | – |
| CN1CCC(n2cnc(-c3ccc(F)cc3)c2-c2ccnc(NCCO)n2)CC1 | < 50 µM | – | < 50 µM |
| CN1CCC(n2cnc(-c3ccc(F)cc3)c2-c2ccnc(NCc3cccc(Cl)c3)n2)CC1 | < 50 µM | – | < 50 µM |
| Fc1ccc(-c2ncn(C3CCNCC3)c2-c2ccnc(Nc3cccc(F)c3)n2)cc1 | – | < 50 µM | < 50 µM |
| CCOC(=O)N1CCC(n2cnc(-c3ccc(F)cc3)c2-c2ccnc(Nc3cccc(OCc4ccccc4)c3)n2)CC1 | – | < 50 µM | – |
| Fc1ccc(-c2ncn(C3CCNCC3)c2-c2ccnc(NCCCn3ccnc3)n2)cc1 | – | – | < 50 µM |
| CN1CCC(n2cnc(-c3ccc(F)cc3)c2-c2ccnc(Nc3ccccc3)n2)CC1 | < 50 µM | – | < 50 µM |
| Fc1ccc(-c2ncn(C3CCNCC3)c2-c2ccnc(Nc3ccccc3)c2)cc1 | < 50 µM | – | < 50 µM |
| CN1CCC(n2cnc(-c3ccc(F)cc3)c2-c2ccnc(NCCc3c[nH]c4ccc(Cl)cc34)n2)CC1 | < 50 µM | – | – |

More lines, main results first:

| inhibition (MAPK14 [1]) | IC50 (MAPK14 [3]) | SMILES | inhibition (MAPK14 [2]) |
| --- | --- | --- | --- |
| < 50 µM | – | CC1(C)CC(n2cnc(-c3ccc(F)cc3)c2-c2ccnc(NCCO)n2)CC(C)(C)N1 | < 50 µM |
| – | < 50 µM | Fc1ccc(-c2ncn(C3CCNCC3)c2-c2ccnc(Nc3cccc(C(F)(F)F)c3)n2)cc1 | – |
| – | < 50 µM | Oc1cccc(Nc2nccc(-c3c(-c4ccc(F)cc4)ncn3C3CCNCC3)n2)c1 | – |
| < 50 µM | – | CN1CCC(n2cnc(-c3ccc(F)cc3)c2-c2ccnc(NC3CCNCC3)n2)CC1 | – |
| < 50 µM | – | O[C@H]1CC[C@H](n2cnc(-c3ccc(F)cc3)c2-c2ccnc(Nc3ccccc3)n2)CC1 | – |
| – | < 50 µM | Fc1ccc(-c2ncn(C3CCNCC3)c2-c2ccnc(Nc3ccccc3F)n2)cc1 | < 50 µM |
| – | < 50 µM | COc1ccccc1Nc1nccc(-c2c(-c3ccc(F)cc3)ncn2C2CCNCC2)n1 | – |
| < 50 µM | – | CN1CCC(n2cnc(-c3ccc(F)cc3)c2-c2ccnc(NC3CC(C)(C)NC(C)(C)C3)n2)CC1 | – |
| < 50 µM | – | CN1CCC(n2cnc(-c3ccc(F)cc3)c2-c2ccnc(NC3CCSCC3)n2)CC1 | – |
| < 50 µM | – | CC1(C)CC(n2cnc(-c3ccc(F)cc3)c2-c2ccnc(Nc3ccccc3)n2)CC(C)(C)N1 | – |
| < 50 µM | – | CN1CCC(n2cnc(-c3ccc(F)cc3)c2-c2ccnc(NCc3ccccc3)n2)CC1 | < 50 µM |
| – | < 50 µM | CCOC(=O)N1CCC(n2cnc(-c3ccc(F)cc3)c2-c2ccnc(Nc3ccc(OCc4ccccc4)cc3)n2)CC1 | – |
| < 50 µM | – | Fc1ccc(cc1)c2ncn(C3CCNCC3)c2c4ccnc(NCCCN5=CNC=C5)n4 | – |
| < 50 µM | – | CN1CCC(n2cnc(-c3ccc(F)cc3)c2-c2ccnc(NCc3ccc4c(c3)OCO4)n2)CC1 | – |
| – | < 50 µM | C[S+]([O-])c1ccc(-c2ncn(C3CCNCC3)c2-c2ccnc(Nc3ccccc3)n2)cc1 (stereo not given) | – |
